# From article PMC10782561 (Chemico-biological interactions, 2023)
# Like-named read-outs stand apart in the source and are kept apart here.
# Legend:
# [1] = type: in vivo, human
# [2] = biological target: human CYP1A2 (Homo sapiens, UniProt P05177); test: Phe inhibition of human CYP1A2, P450-Glo assay; type: biochemical
# [3] = test system: Salmonella strains TA100, TA 97a, TA98 and TA102; settings: cited from earlier work
# [4] = [14C]-BaP metabolite in human plasma, 0-48 h, BaP + Phe dose, mean ± SD
# [5] = [14C]-BaP metabolite in human plasma, 0-48 h, BaP only dose, mean ± SD
# [6] = [14C]-BaP metabolite in human plasma, BaP + Phe dose, mean ± SD
# [7] = [14C]-BaP metabolite in human plasma, BaP only dose, mean ± SD
# human CYP1A2, sequence (P05177 whole entry): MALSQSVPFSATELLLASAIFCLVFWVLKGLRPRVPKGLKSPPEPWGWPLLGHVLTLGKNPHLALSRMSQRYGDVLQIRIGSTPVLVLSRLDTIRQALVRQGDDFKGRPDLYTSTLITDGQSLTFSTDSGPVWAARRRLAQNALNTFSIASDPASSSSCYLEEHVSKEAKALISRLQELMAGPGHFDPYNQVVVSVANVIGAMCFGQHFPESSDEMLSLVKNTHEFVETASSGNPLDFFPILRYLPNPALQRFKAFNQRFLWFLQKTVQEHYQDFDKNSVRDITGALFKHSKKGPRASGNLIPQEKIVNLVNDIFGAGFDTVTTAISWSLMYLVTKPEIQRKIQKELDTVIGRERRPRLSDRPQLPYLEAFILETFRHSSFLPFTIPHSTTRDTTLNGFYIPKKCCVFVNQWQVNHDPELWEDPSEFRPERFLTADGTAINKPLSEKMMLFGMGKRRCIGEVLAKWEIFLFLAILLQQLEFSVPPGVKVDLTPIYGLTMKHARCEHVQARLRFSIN
Compound,"AUC [1, 4]","AUC [1, 5]","AUC(0,∞) [1, 6]","Cmax [1, 6]","T1/2 [1, 6]","Tmax [1, 6]","AUC(0,∞) [1, 7]","Cmax [1, 7]","T1/2 [1, 7]","Tmax [1, 7]",further results
Oc1ccc2cc3ccc4cccc5ccc(c2c1)c3c45 [9-OH],0.74 ± 0.82 fg BaP/mL×h,3.40 ± 3.83 fg BaP/mL×h,0.74 ± 0.82 fg BaP/mL×h,0.66 ± 0.38 fg BaP/mL,1.40 ± 0.49 h,2.0 ± 0.7 h,3.40 ± 3.83 fg BaP/mL×h,2.32 ± 2.36 fg BaP/mL,1.33 ± 0.39 h,1.4 ± 0.7 h,
Oc1ccc2ccc3c4ccccc4cc4ccc1c2c43 [3-OH],5.90 ± 4.33 fg BaP/mL×h,9.99 ± 7.43 fg BaP/mL×h,5.90 ± 4.33 fg BaP/mL×h,2.00 ± 1.03 fg BaP/mL,1.59 ± 0.36 h,2.2 ± 0.8 h,9.99 ± 7.43 fg BaP/mL×h,4.85 ± 3.31 fg BaP/mL,1.85 ± 0.56 h,1.7 ± 0.8 h,
"O[C@H]1C=Cc2c(cc3ccc4cccc5ccc2c3c45)[C@@H]1O (racemic) [7,8-dihydrodiol, (±) trans-benzo[a]pyrene-7,8-dihydrodiol]",10.53 ± 9.26 fg BaP/mL×h,28.04 ± 34.04 fg BaP/mL×h,10.53 ± 9.26 fg BaP/mL×h,2.54 ± 2.07 fg BaP/mL,2.25 ± 0.55 h,2.3 ± 1.2 h,28.04 ± 34.04 fg BaP/mL×h,4.12 ± 3.04 fg BaP/mL,4.72 ± 4.18 h,1.7 ± 0.8 h,
"c1ccc2c(c1)ccc1ccccc12 [Phe, phenanthrene]",,,,,,,,,,,Ki [2]: 12.6 µM; type of inhibition of hCYP1A2 ([2]; Lineweaver-Burk plot): competitive
"c1ccc2c(c1)cc1ccc3cccc4ccc2c1c34 [[^14C]-BaP, benzo[a]pyrene]",,,,,,,,,,,"Cl ([1]; both, human, in vivo): 3707 ± 2267 L/h; Vd ([1]; both, human, in vivo): 17550 ± 9725 L; half-life ([1]; both, human, in vivo, T1/2): 287 ± 267 min; Tmax ([1]; both, human, in vivo, Tmax): 1.1 ± 1.1 h; half-life ([1]; both, human, in vivo, po, T1/2 in blood): 66 ± 66 min; AUC ([1]; human, in vivo): 17.88 ± 9.56 fg BaP/mL×h; AUC(0,∞) ([1]; human, in vivo): 17.88 ± 9.56 fg BaP/mL×h"
"Cc1cccc2c1ccc1cc(C(C)C)ccc12 [Retene, 7-isopropyl-1-methylphenanthrene]",,,,,,,,,,,mutagenicity [3]: negative
